Source: patent publication US9790233B2, “Compositions and methods of modulating 15-PGDH activity” (CASE WESTERN RESERVE UNIVERSITY, priority 2012, dated 2017)
Like-named read-outs stand apart in the source and are kept apart here.

Columns and labels:
Type in all cases: cell-based
[1] = system: 15-PGDH luciferase fusion construct in V9m reporter cell line; experiment: 15-PGDH-luciferase fusion gene reporter induction, V9m cells
[2] = system: 15-PGDH luciferase fusion construct in LS174T reporter cell line; experiment: 15-PGDH-luciferase fusion gene reporter induction, LS174T cells; conditions: Homo sapiens
[3] = system: 15-PGDH luciferase fusion construct in Vaco503 reporter cell line; experiment: 15-PGDH-luciferase fusion gene reporter induction, V503 cells
[4] = read-out: V9M-SC3 Reporter activity ([…]) (%), V9m reporter cells, […] compound, % induction of luciferase activity over basal level, read-out: V9M-SC3 Reporter activity (2.5 μM) (%)
[5] = read-out: V9M-SC3 Reporter activity ([…]), %, V9m reporter cells, […] compound, % induction of luciferase activity over basal level, read-out: V9M-SC3 Reporter activity (7.5 μM), %
[6] = read-out: Ls174T-SC1 reporter activity, % ([…]), LS174T reporter cells, […] compound, % induction of luciferase activity over basal level, read-out: Ls174T-SC1 reporter activity, % (2.5 μM)
[7] = read-out: Ls174T-SC1 reporter activity, % ([…]), LS174T reporter cells, […] compound, % induction of luciferase activity over basal level, read-out: Ls174T-SC1 reporter activity, % (7.5 μM)
[8] = read-out: V503-3H9-7 reporter activity, % ([…]), V503 reporter cells, […] compound, % induction of luciferase activity over basal level, read-out: V503-3H9-7 reporter activity, % (2.5 μM)
[9] = read-out: V503-3H9-7 reporter activity, % ([…]), V503 reporter cells, […] compound, % induction of luciferase activity over basal level, read-out: V503-3H9-7 reporter activity, % (7.5 μM)
[10] = read-out: V9M-SC3 Reporter activity ([…]) (%), […], Table 18, read-out: V9M-SC3 Reporter activity (2.5 μM) (%)
[11] = read-out: Ls174T-SC1 reporter activity, % ([…]), […], Table 18, read-out: Ls174T-SC1 reporter activity, % (2.5 μM)
[12] = read-out: Ls174T-SC1 reporter activity, % ([…]), […], Table 18, read-out: Ls174T-SC1 reporter activity, % (7.5 μM)
[13] = read-out: V503-3H9-7 reporter activity, % ([…]), […], Table 18, read-out: V503-3H9-7 reporter activity, % (2.5 μM)
[14] = read-out: V503-3H9-7 reporter activity, % ([…]), […], Table 18, read-out: V503-3H9-7 reporter activity, % (7.5 μM)
[15] = read-out: V9M reporter activity ([…]), […], % induction of luciferase activity over basal level, Table 17, read-out: V9M reporter activity (2.5 μM)
[16] = read-out: V9M reporter activity ([…]), […], % induction over basal level, Table 17, read-out: V9M reporter activity (7.5 μM)
[17] = read-out: LS174T reporter activity ([…]), […], % induction over basal level, Table 17, read-out: LS174T reporter activity (2.5 μM)
[18] = read-out: lS174T reporter activity ([…]), […], % induction over basal level, Table 17, read-out: lS174T reporter activity (7.5 μM)
[19] = read-out: V503 reporter activity ([…]), […], % induction over basal level, Table 17, read-out: V503 reporter activity (2.5 μM)
[20] = read-out: V503 reporter activity ([…]), […], % induction over basal level, Table 17, read-out: V503 reporter activity (7.5 μM)

COc1ccc(OC)c(NCC(=O)Nc2cccnc2)c1 [SW202948]
activation at […] [1, 4]: -22% | activation at […] [1, 5]: -23.1% | activation at […] [2, 6]: -6.73% | activation at […] [2, 7]: 8.36% | activation at […] [3, 8]: 16.4% | activation at […] [3, 9]: 7.54%

COc1cccc(N(CC(=O)Nc2cccnc2)S(=O)(=O)c2ccccc2)c1 [335392−39−7]
activation at […] [1, 10]: -12.8% | activation at […] [2, 11]: -0.54% | activation at […] [2, 12]: 14.3% | activation at […] [3, 13]: 18.9% | activation at […] [3, 14]: 21.9%

COc1ccc(OC)c(N(CC(=O)Nc2ccccc2Cl)S(=O)(=O)c2ccccc2)c1 [SW202987]
activation at […] [1, 4]: -22% | activation at […] [1, 5]: -21% | activation at […] [2, 6]: -8.3% | activation at […] [2, 7]: 20.6% | activation at […] [3, 8]: 70.1% | activation at […] [3, 9]: 145%

COc1ccc(OC)c(N(CC(=O)Nc2cccnc2)S(=O)(=O)c2ccc(OC)c(OC)c2)c1 [680599−58−0]
activation at […] [1, 10]: -5.29% | activation at […] [2, 11]: 11.5% | activation at […] [2, 12]: -13.8% | activation at […] [3, 13]: 16.7% | activation at […] [3, 14]: 28.9%

COc1ccc(OC)c(N(CC(=O)Nc2ccccn2)S(=O)(=O)c2ccccc2)c1 [SW202941]
activation at […] [1, 4]: -10.9% | activation at […] [1, 5]: 2.57% | activation at […] [2, 6]: -23.8% | activation at […] [2, 7]: -43.2% | activation at […] [3, 8]: 75.9% | activation at […] [3, 9]: 83.5%

COc1ccc(OC)c(N(CC(=O)N2CCCCCC2)S(=O)(=O)c2ccccc2)c1 [SW208000]
activation at […] [1, 4]: 33.5% | activation at […] [1, 5]: 36.6% | activation at […] [2, 6]: 42% | activation at […] [2, 7]: 70.5% | activation at […] [3, 8]: 122% | activation at […] [3, 9]: 138%

O=C(CN(c1ccccn1)S(=O)(=O)c1ccccc1)Nc1ccccc1 [compound 543512]
activation at […] [1, 15]: 36.8% | activation at […] [1, 16]: 79.6% | activation at […] [2, 17]: 18.1% | activation at […] [2, 18]: 8.33% | activation at […] [3, 19]: -4.56% | activation at […] [3, 20]: -4.26%

O=C(CN(c1cc(Cl)ccc1Cl)S(=O)(=O)c1ccccc1)Nc1cccnc1 [833428−03−8]
activation at […] [1, 10]: -4.1% | activation at […] [2, 11]: 25.1% | activation at […] [2, 12]: 47.4% | activation at […] [3, 13]: 96.4% | activation at […] [3, 14]: 150%

COc1ccc(OC)c(N(CC(=O)Nc2cccnc2)S(=O)(=O)c2ccccc2C)c1 [SW202943]
activation at […] [1, 4]: 7.12% | activation at […] [1, 5]: 17.8% | activation at […] [2, 6]: 33.1% | activation at […] [2, 7]: 55.7% | activation at […] [3, 8]: 72.3% | activation at […] [3, 9]: 147%

COc1ccc(S(=O)(=O)N(CC(=O)Nc2cccnc2)c2cc(C(F)(F)F)ccc2C(F)(F)F)cc1 [SW208008]
activation at […] [1, 4]: -5.96% | activation at […] [1, 5]: -0.92% | activation at […] [2, 6]: -2.16% | activation at […] [2, 7]: 10% | activation at […] [3, 8]: 31.9% | activation at […] [3, 9]: 39.6%

COc1ccc(OC)c(N(CC(=O)Nc2cccnc2C)S(=O)(=O)c2ccccc2)c1 [SW202968]
activation at […] [1, 4]: -21.1% | activation at […] [1, 5]: -7.36% | activation at […] [2, 6]: -17.5% | activation at […] [2, 7]: 6.08% | activation at […] [3, 8]: 35.2% | activation at […] [3, 9]: 53.9%

COc1ccc(OC)c(N(CC(=O)Nc2cnccn2)S(=O)(=O)c2ccccc2)c1 [SW203681]
activation at […] [1, 4]: 18% | activation at […] [1, 5]: 122% | activation at […] [2, 6]: 121% | activation at […] [2, 7]: 152% | activation at […] [3, 8]: 90.4% | activation at […] [3, 9]: 72.4%

COc1ccc(OC)c(N(CC(=O)Nc2cccc(C)c2)S(=O)(=O)c2ccccc2)c1 [SW202969]
activation at […] [1, 4]: -21% | activation at […] [1, 5]: -14.3% | activation at […] [2, 6]: -15.9% | activation at […] [2, 7]: 17.9% | activation at […] [3, 8]: 62.4% | activation at […] [3, 9]: 126%

COc1ccc(OC)c(N(CC(=O)Nc2cccnc2)S(=O)(=O)c2ccc(C)cc2)c1 [505072−23−1]
activation at […] [1, 10]: 94.7% | activation at […] [2, 11]: 101% | activation at […] [2, 12]: 109% | activation at […] [3, 13]: 242% | activation at […] [3, 14]: 239%

COc1ccc(OC)c(N(CC(=O)Nc2cccnc2)S(=O)(=O)c2ccccc2Cl)c1 [SW202949]
activation at […] [1, 4]: 5.76% | activation at […] [1, 5]: -5.69% | activation at […] [2, 6]: -1.58% | activation at […] [2, 7]: -5.87% | activation at […] [3, 8]: -12.5% | activation at […] [3, 9]: 5.32%

COc1ccc(N(CC(=O)Nc2ccccc2Br)S(=O)(=O)c2ccc(C)cc2)c(OC)c1 [compound 771138]
activation at […] [1, 15]: -4.36% | activation at […] [1, 16]: 6.75% | activation at […] [2, 17]: 13.6% | activation at […] [2, 18]: 9.23% | activation at […] [3, 19]: 34.4% | activation at […] [3, 20]: 72.6%

COc1ccc(OC)c(N(CC(=O)Nc2cccnc2)S(=O)(=O)c2ccc(C)cc2)c1 [SW202939]
activation at […] [1, 4]: 75.3% | activation at […] [1, 5]: 128% | activation at […] [2, 6]: 75.5% | activation at […] [2, 7]: 166% | activation at […] [3, 8]: 26.6% | activation at […] [3, 9]: 27.3%

COc1ccc(N(CC(=O)Nc2ccc(CC#N)cc2)S(=O)(=O)c2ccccc2)cc1Cl [compound 919576]
activation at […] [1, 15]: 49.9% | activation at […] [1, 16]: 63% | activation at […] [2, 17]: 17.5% | activation at […] [2, 18]: 30.7% | activation at […] [3, 19]: 49.2% | activation at […] [3, 20]: 73.7%

COc1ccc(OC)c(N(CC(=O)Nc2ccccc2OC)S(=O)(=O)c2ccccc2)c1 [SW202965]
activation at […] [1, 4]: -30.9% | activation at […] [1, 5]: -25.8% | activation at […] [2, 6]: -23.5% | activation at […] [2, 7]: 3.52% | activation at […] [3, 8]: 23.8% | activation at […] [3, 9]: 98.1%

COc1ccc(OC)c(N(CC(=O)Nc2ccnc(C)c2)S(=O)(=O)c2ccccc2)c1 [SW202966]
activation at […] [1, 4]: -0.84% | activation at […] [1, 5]: 67.7% | activation at […] [2, 6]: 1.82% | activation at […] [2, 7]: 78.2% | activation at […] [3, 8]: 115% | activation at […] [3, 9]: 249%

COc1ccc(OC)c(N(CC(=O)Nc2ccc(Cl)cc2)S(=O)(=O)c2ccccc2)c1 [339589-53-6]
activation at […] [1, 10]: -1% | activation at […] [2, 11]: 51.2% | activation at […] [2, 12]: 89.7% | activation at […] [3, 13]: 200% | activation at […] [3, 14]: 105%

CCc1ccccc1N(CC(=O)Nc1cccnc1)S(=O)(=O)c1ccccc1 [528580−69−0]
activation at […] [1, 10]: 4.71% | activation at […] [2, 11]: 11.5% | activation at […] [2, 12]: -4.81% | activation at […] [3, 13]: 66% | activation at […] [3, 14]: 110%

COc1ccc(OC)c(N(CC(=O)Nc2ccccc2C(N)=O)S(=O)(=O)c2ccccc2)c1 [530107-57-4]
activation at […] [1, 10]: 59.5% | activation at […] [2, 11]: 5.45% | activation at […] [2, 12]: 8.27% | activation at […] [3, 13]: 52.6% | activation at […] [3, 14]: 84.4%

COc1ccc(OC)c(N(CC(N)=O)S(=O)(=O)c2ccccc2)c1 [SW131635]
activation at […] [1, 4]: 11.4% | activation at […] [1, 5]: 15.1% | activation at […] [2, 6]: 111% | activation at […] [2, 7]: 14.1% | activation at […] [3, 8]: -37.7% | activation at […] [3, 9]: 14.4%

COc1ccccc1N(CC(=O)Nc1cccnc1)S(=O)(=O)c1ccccc1 [367929−80−4]
activation at […] [1, 10]: -27.8% | activation at […] [2, 11]: 18.8% | activation at […] [2, 12]: -18% | activation at […] [3, 13]: -0.87% | activation at […] [3, 14]: -6.22%

O=C(CN(c1ccccc1)S(=O)(=O)c1ccccc1)Nc1ccccn1 [compound 414183]
activation at […] [1, 15]: -9.15% | activation at […] [1, 16]: -3.89% | activation at […] [2, 17]: 5.35% | activation at […] [2, 18]: -4.77% | activation at […] [3, 19]: 11.5% | activation at […] [3, 20]: 37.2%

COc1ccc(OC)c(NC(=O)CN(c2ccc([N+](=O)[O-])cc2)S(=O)(=O)c2ccccc2)c1 [compound 414195]
activation at […] [1, 15]: -13.9% | activation at […] [1, 16]: -16.8% | activation at […] [2, 17]: -1.15% | activation at […] [2, 18]: 2.34% | activation at […] [3, 19]: 13.1% | activation at […] [3, 20]: 19.5%
